Tests used:
[1] = target: T1, NMDA receptor (NMDAR; GluN2B-containing) (Mus musculus, UniProt P35438+Q01097); test: Fluo-3 NMDA-induced Ca2+ influx in primary neurons, single concentration ([…], […] reduction in AUC); assay type: cell-based
T1 construct: gene Grin2b; native receptor in DIV 10–12 cerebrocortical neurons; with GluN1

[2] = target: T1, NMDA receptor (NMDAR; GluN2B-containing); test: Fluo-3 Ca2+ influx in primary neurons; […] inhibits NMDA response ([…] AUC); IC50 is against PbTx-2-induced influx; assay type: cell-based

T1 sequence (Q01097 27-1482, other chains not shown): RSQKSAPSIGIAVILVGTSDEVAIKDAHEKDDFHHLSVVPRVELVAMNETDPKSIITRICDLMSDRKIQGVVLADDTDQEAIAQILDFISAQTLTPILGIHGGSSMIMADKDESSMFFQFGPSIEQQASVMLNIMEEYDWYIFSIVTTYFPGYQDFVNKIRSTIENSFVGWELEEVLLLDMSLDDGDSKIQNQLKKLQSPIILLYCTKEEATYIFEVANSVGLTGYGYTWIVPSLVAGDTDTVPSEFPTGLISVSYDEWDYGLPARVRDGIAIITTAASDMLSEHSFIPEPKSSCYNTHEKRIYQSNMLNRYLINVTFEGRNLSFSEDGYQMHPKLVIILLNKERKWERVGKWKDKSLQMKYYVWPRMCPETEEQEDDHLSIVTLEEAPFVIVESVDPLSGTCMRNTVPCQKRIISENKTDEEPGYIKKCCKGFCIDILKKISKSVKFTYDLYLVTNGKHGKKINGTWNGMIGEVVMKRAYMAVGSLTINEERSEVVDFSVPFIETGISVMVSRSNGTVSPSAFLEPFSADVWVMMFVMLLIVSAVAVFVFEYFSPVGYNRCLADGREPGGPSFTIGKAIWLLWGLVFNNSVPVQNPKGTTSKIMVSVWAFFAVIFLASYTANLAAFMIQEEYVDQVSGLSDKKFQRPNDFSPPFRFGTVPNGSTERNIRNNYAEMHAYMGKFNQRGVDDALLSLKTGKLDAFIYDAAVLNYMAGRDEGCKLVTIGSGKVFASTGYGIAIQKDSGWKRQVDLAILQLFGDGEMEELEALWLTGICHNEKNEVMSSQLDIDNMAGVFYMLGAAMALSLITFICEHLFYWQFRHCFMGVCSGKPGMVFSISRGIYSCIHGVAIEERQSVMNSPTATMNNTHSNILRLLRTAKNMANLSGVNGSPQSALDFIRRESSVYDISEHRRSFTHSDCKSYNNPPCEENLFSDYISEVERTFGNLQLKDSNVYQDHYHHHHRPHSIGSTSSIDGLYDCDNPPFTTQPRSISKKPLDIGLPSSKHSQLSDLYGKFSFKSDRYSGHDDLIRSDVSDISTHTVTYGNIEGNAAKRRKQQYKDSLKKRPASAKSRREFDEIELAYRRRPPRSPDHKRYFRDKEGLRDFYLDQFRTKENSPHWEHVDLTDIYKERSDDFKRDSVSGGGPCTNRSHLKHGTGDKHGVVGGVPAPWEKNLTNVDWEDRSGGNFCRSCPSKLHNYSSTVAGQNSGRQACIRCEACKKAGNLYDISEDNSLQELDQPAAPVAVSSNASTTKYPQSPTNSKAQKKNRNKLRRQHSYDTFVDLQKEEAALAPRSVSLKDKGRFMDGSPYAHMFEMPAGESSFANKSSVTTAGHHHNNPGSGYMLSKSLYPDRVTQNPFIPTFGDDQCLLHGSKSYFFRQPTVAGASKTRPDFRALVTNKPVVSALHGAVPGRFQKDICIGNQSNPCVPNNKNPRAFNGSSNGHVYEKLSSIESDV

SMILES	inhibition at 1 µM [1] [%]	IC50 [2] [nM]
C[C@]12N[C@H](Cc3ccccc31)c1ccccc12 [MK-801]	75	–
CC(C(O)c1ccc(O)cc1)N1CCC(Cc2ccccc2)CC1 (centres unmarked) [ifenprodil]	–	2200

Reference: paper PMC9504648 (Marine Drugs, 2022)
